For 29 molecules, EC50 and Max % results are on record in US9988400B2 (Genentech, Inc., priority 2013, dated 2018).

The term EC50 denotes the concentration needed to bring the measured effect to its halfway point.

The test addresses T1, HEK cells stably transfected with tetracycline inducible hNR1 and hNR2A (Homo sapiens, UniProt Q05586+Q12879).
T1 construct: expressed in transfected cells; host or cells: HEK cells, stably transfected, tetracycline/doxycycline inducible
In words: Assay 1: Cell-Based Assay, cytosolic calcium response to positive allosteric modulators (with 30 μM glycine and 300 nM L-glutamate, EC30). The note with it: for EC50: cytosolic calcium response, with 30 μM glycine and 300 nM L-glutamate (EC30), — = no plateau was reached; for Max %: responses scaled relative to 100 μM L-glutamate maximal response (100%) and 0 μM L-glutamate (0%). Summed up: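 Cells induced 24 h with 7.5 μg mL^−1 doxycycline plus 500 μM (+)-ketamine, loaded 60 min at 37 °C with calcium dye in Mg-free HBSS (1.8 mM Ca, probenecid, 10 μM (+)-ketamine, pH 7.15). Peak RFU over 5 min after compound addition, scaled to 100 μM L-glutamate (100%) and 0 μM (0%); four-parameter Hill fit for EC50, max % if no plateau.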

T1 sequence (Q12879 23-1464, other chains not shown): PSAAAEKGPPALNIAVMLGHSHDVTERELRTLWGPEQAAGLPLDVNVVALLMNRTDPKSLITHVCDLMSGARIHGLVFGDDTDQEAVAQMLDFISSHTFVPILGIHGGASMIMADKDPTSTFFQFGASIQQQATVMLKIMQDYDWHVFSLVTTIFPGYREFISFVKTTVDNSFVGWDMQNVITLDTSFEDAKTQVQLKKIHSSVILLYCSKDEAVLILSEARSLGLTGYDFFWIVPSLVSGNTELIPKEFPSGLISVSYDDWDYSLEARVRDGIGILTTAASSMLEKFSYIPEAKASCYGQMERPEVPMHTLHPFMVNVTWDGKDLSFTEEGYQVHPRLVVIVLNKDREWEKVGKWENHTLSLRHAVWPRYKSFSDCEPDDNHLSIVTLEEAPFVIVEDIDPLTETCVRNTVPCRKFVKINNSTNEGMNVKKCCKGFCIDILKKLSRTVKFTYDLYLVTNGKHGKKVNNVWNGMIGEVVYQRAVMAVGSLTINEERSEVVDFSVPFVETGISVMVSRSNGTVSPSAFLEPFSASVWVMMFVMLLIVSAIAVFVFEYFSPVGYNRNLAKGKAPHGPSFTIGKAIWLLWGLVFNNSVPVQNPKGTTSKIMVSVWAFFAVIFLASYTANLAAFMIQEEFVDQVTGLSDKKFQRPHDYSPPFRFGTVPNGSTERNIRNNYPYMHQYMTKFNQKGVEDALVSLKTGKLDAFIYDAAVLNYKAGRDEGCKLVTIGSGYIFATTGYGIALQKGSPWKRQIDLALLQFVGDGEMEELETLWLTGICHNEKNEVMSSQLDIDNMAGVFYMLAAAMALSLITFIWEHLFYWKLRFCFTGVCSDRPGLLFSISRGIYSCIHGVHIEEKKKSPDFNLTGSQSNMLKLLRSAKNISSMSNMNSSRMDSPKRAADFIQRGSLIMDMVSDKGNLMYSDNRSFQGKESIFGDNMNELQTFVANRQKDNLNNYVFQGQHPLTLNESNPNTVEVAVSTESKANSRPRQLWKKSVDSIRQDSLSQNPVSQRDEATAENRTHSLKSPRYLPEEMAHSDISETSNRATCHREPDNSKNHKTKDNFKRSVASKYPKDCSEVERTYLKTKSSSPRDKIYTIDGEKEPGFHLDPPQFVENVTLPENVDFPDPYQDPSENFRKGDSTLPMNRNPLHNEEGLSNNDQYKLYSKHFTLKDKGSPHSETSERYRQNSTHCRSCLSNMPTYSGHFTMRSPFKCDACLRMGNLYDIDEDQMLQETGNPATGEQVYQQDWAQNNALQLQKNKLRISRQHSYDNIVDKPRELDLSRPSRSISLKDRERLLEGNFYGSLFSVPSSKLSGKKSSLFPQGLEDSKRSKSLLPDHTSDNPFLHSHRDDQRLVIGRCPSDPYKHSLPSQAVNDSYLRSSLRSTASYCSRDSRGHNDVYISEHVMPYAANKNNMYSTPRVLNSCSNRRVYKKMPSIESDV

Take `Cc1sc2nc(COc3ccc(F)cc3)cc(=O)n2c1-c1ncco1` [Example 4.11, 7-((4-fluorophenoxy)methyl)-2-methyl-3-(oxazol-2-yl)-5H-thiazolo[3,2-a]pyrimidin-5-one]: for the setting “Table 2”, the EC50 was 4.8 µM and the Max % is recorded as 40.8%. As to `CCN(Cc1cc(=O)n2c(C3CCOCC3)c(C)sc2n1)c1ccc(F)cc1` [Example 9.4, 7-[(N-ethyl-4-fluoro-anilino)methyl]-2-methyl-3-tetrahydropyran-4-yl-thiazolo[3,2-a]pyrimidin-5-one], for the setting “Table 2”, the EC50 worked out at 9.2 µM and the Max % was determined as 114%. Take `CC1CC1c1c(C(F)(F)F)sc2nc(Cc3cccc(C#N)c3F)cc(=O)n12` (centres unmarked) [compound 84, 2-fluoro-3-[[3-(2-methylcyclopropyl)-5-oxo-2-(trifluoromethyl)thiazolo[3,2-a]pyrimidin-7-yl]methyl]benzonitrile]: the EC50 (Table 3) was 11.2 µM. Take `Cc1sc2nc(Cc3ccc(C(F)(F)F)cc3)cc(=O)n2c1C1CC1CO` (centres unmarked) [Example 20.11, 3-(2-(hydroxymethyl)cyclopropyl)-2-methyl-7-(4-(trifluoromethyl)benzyl)-5H-thiazolo[3,2-a]pyrimidin-5-one]: for the setting “Table 2”, the EC50 came out at 31.2 µM and the Max % was 78.7%. Regarding `Cc1sc2nc(Cc3nn(C)cc3Cl)cc(=O)n2c1C1CC1C#N` (centres unmarked) [compound 271, 2-[7-[(4-chloro-1-methyl-pyrazol-3-yl)methyl]-2-methyl-5-oxo-thiazolo[3,2-a]pyrimidin-3-yl]cyclopropanecarbonitrile], for the setting “Table 3”, the EC50 amounted to 3.57 µM.

Turning to `CCNC(=O)c1c(C(F)(F)F)sc2nc(Cc3cccc(C(F)F)c3F)cc(=O)n12` [compound 42, 7-[[3-(difluoromethyl)-2-fluoro-phenyl]methyl]-N-ethyl-5-oxo-2-(trifluoromethyl)thiazolo[3,2-a]pyrimidine-3-carboxamide], under “Table 3”, the EC50 came out at 1.57 µM. Take `CCC(=O)c1c(C)sc2nc(COc3ccc(F)cc3)cc(=O)n12` [Example 2.1, 7-((4-fluorophenoxy)methyl)-2-methyl-3-propionyl-5H-thiazolo[3,2-a]pyrimidin-5-one]: under “Table 2”, the EC50 was determined as 5.2 µM and the Max % is 51.3%.

Regarding `CCNC(=O)c1c(Cl)sc2nc(Cc3cccc(C(F)(F)F)c3F)cc(=O)n12` [compound 60, 2-chloro-N-ethyl-7-[[2-fluoro-3-(trifluoromethyl)phenyl]methyl]-5-oxo-thiazolo[3,2-a]pyrimidine-3-carboxamide], under “Table 3”, the EC50 stood at 3.22 µM. For the molecule `Cc1sc2nc(Cn3ccc(C(F)(F)F)n3)cc(=O)n2c1C(C)(C)O` [Example 18.4, 3-(2-hydroxypropan-2-yl)-2-methyl-7-((3-(trifluoromethyl)-1H-pyrazol-1-yl)methyl)-5H-thiazolo[3,2-a]pyrimidin-5-one], the Max % (Table 2) was determined as 127%.

Consider `CCNC(=O)c1c(C)sc2nc(Cn3nc(Cl)cc3Cl)cc(=O)n12` [compound 164, 7-[(3,5-dichloropyrazol-1-yl)methyl]-N-ethyl-2-methyl-5-oxo-thiazolo[3,2-a]pyrimidine-3-carboxamide], for which, where the note is “Table 3”, the EC50 was 0.562 µM. For `CCCc1ccc(F)cc1Cc1cc(=O)n2c(C(=O)NCC)c(C)sc2n1` [Example 21.67, N-ethyl-7-(5-fluoro-2-propylbenzyl)-2-methyl-5-oxo-5H-thiazolo[3,2-a]pyrimidine-3-carboxamide], the Max % (Table 2) is reported as 75%. Take `CCN(Cc1cc(=O)n2c(C(C)O)c(C)sc2n1)c1ccc(F)cc1` (centres unmarked) [Example 10.6, 7-[(N-ethyl-4-fluoro-anilino)methyl]-3-(1-hydroxyethyl)-2-methyl-thiazolo[3,2-a]pyrimidin-5-one]: under “Table 2”, the half-maximal effective concentration (EC50) worked out at 0.548 µM and the Max % came out at 176%.

Consider `CCN(Cc1cc(=O)n2c([C@@H]3C[C@H]3CF)c(C)sc2n1)c1ccc(F)cc1` (relative stereo) [Example 5.39, 7-((ethyl(4-fluorophenyl)amino)methyl)-3-(trans-2-(fluoromethyl)cyclopropyl)-2-methyl-5H-thiazolo[3,2-a]pyrimidin-5-one], for which, where the note is “Table 2”, the EC50 turned out to be 0.952 µM and the Max % was 167%.

With `Cc1sc2nc(Cc3cc(C#N)ccc3F)cc(=O)n2c1[C@@H]1C[C@H]1CO` (relative stereo) [Example 20.7, 4-fluoro-3-((3-(trans-2-(hydroxymethyl)cyclopropyl)-2-methyl-5-oxo-5H-thiazolo[3,2-a]pyrimidin-7-yl)methyl)benzonitrile], for the setting “Table 2”, the EC50 came to 10.8 µM and the Max % stood at 137%.

In the case of `Cc1sc2nc(Cn3nc(C(F)(F)F)cc3CCO)cc(=O)n2c1[C@@H]1C[C@H]1CO` (relative stereo) [Example 15.7, 7-[[5-(2-hydroxyethyl)-3-(trifluoromethyl)-1H-pyrazol-1-yl]methyl]-3-[trans-2-(hydroxymethyl)cyclopropyl]-2-methyl-5H-[1,3]thiazolo[3,2-a]pyrimidin-5-one], under “Table 2”, the EC50 came to 0.826 µM and the Max % is recorded as 158%. Take `CNC(=O)c1c(C)sc2nc(Cc3cc(Cl)ccc3Cl)cc(=O)n12` [Example 21.48, 7-[(2,5-dichlorophenyl)methyl]-N,2-dimethyl-5-oxo-thiazolo[3,2-a]pyrimidine-3-carboxamide]: for the setting “Table 2”, the EC50 was 8.2 µM and the Max % was determined as 100%.

Take `CCNC(=O)c1c(C(F)(F)F)sc2nc(Cn3nc(C4CC4)cc3C(F)(F)F)cc(=O)n12` [Example 16.4, 7-((3-cyclopropyl-5-(trifluoromethyl)-1H-pyrazol-1-yl)methyl)-N-ethyl-5-oxo-2-(trifluoromethyl)-5H-thiazolo[3,2-a]pyrimidine-3-carboxamide]: where the note is “Table 2”, the EC50 was determined as 9.2 µM and the Max % was 130%. As for `O=c1cc(Cc2cccc(C(F)(F)F)c2F)nc2sc3c(n12)C(CO)CC3` (centres unmarked) [compound 92], the EC50 (Table 3) was 47.1 µM. Still for that read-out and setting: for `CCNC(=O)c1c(C)sc2nc(Cn3nc(C4CC4)cc3C(F)(F)F)cc(=O)n12` [compound 123, 7-[[3-cyclopropyl-5-(trifluoromethyl)pyrazol-1-yl]methyl]-N-ethyl-2-methyl-5-oxo-thiazolo[3,2-a]pyrimidine-3-carboxamide] the value was 2.59 µM. In the case of `Cc1sc2nc(Cc3cccc(C#N)c3F)cc(=O)n2c1C(=O)NCC(F)(F)F` [Example 25.1, 7-(3-cyano-2-fluorobenzyl)-2-methyl-5-oxo-N-(2,2,2-trifluoroethyl)-5H-thiazolo[3,2-a]pyrimidine-3-carboxamide], the EC50 (Table 2) worked out at 18.7 µM. Take `Cc1sc2nc(Cn3nc(C(F)(F)F)cc3Cl)cc(=O)n2c1C(C)(C)O` [compound 108, 7-[[5-chloro-3-(trifluoromethyl)pyrazol-1-yl]methyl]-3-(1-hydroxy-1-methyl-ethyl)-2-methyl-thiazolo[3,2-a]pyrimidin-5-one]: the EC50 (Table 3) came out at 0.247 µM. `CC(=O)c1c(C)sc2nc(Cn3nc(C(F)(F)F)cc3C3CC3)cc(=O)n12` [Example 18.2, 3-acetyl-7-((5-cyclopropyl-3-(trifluoromethyl)-1H-pyrazol-1-yl)methyl)-2-methyl-5H-thiazolo[3,2-a]pyrimidin-5-one]: where the note is “Table 2”, the EC50 is 2.2 µM and the Max % is recorded as 144%. As for `Cc1sc2nc(Cc3cccc(C(F)(F)F)c3F)cc(=O)n2c1C(C)O` (single isomer, unassigned; enantiomer 2) [Example 27.12, 7-(2-fluoro-3-(trifluoromethyl)benzyl)-3-(1-hydroxyethyl)-2-methyl-5H-thiazolo[3,2-a]pyrimidin-5-one (enantiomer 2)], the EC50 (Table 2) worked out at 40.8 µM.

Consider `CCNC(=O)c1csc2nc(Cn3nc(C(F)(F)F)cc3C3CC3)cc(=O)n12` [Example 16.5, 7-((5-cyclopropyl-3-(trifluoromethyl)-1H-pyrazol-1-yl)methyl)-N-ethyl-5-oxo-5H-thiazolo[3,2-a]pyrimidine-3-carboxamide], for which, for the setting “Table 2”, the EC50 came to 10.6 µM and the Max % is 149%. The corresponding values for `Cc1sc2nc(Cc3ccc(F)c(C#N)c3)cc(=O)n2c1[C@@H]1C[C@H]1CO` (relative stereo) [Example 20.9, 2-fluoro-5-((3-(trans-2-(hydroxymethyl)cyclopropyl)-2-methyl-5-oxo-5H-thiazolo[3,2-a]pyrimidin-7-yl)methyl)benzonitrile] are 13.9 µM and 133%. The like results for `Cc1sc2nc(COc3ccc(F)cc3)cc(=O)n2c1-c1cncnc1` [Example 4.5, 7-((4-fluorophenoxy)methyl)-2-methyl-3-(pyrimidin-5-yl)-5H-thiazolo[3,2-a]pyrimidin-5-one] were, in that order, 5.7 µM and 42.2%.

Take `Cc1sc2nc(Cc3cccc(C(F)(F)F)c3F)cc(=O)n2c1C(=O)NCC(F)(F)F` [compound 51, 7-[[2-fluoro-3-(trifluoromethyl)phenyl]methyl]-2-methyl-5-oxo-N-(2,2,2-trifluoroethyl)thiazolo[3,2-a]pyrimidine-3-carboxamide]: where the note is “Table 3”, the EC50 turned out to be 3.16 µM. With `Cc1sc2nc(Cn3ccc(C(F)(F)F)n3)cc(=O)n2c1[C@@H]1C[C@H]1CO` (relative stereo) [Example 15.5, 3-(trans-2-(hydroxymethyl)cyclopropyl)-2-methyl-7-((3-(trifluoromethyl)-1H-pyrazol-1-yl)methyl)-5H-thiazolo[3,2-a]pyrimidin-5-one], where the note is “Table 2”, the EC50 amounted to 1.7 µM and the Max % amounted to 131%.

Take `Cc1sc2nc(Cc3cccc(C#N)c3F)cc(=O)n2c1-c1ncco1` [compound 3, 2-fluoro-3-[(2-methyl-3-oxazol-2-yl-5-oxo-thiazolo[3,2-a]pyrimidin-7-yl)methyl]benzonitrile]: the 50% effective concentration (EC50) (Table 3) is 10.9 µM.
